Where “and” joins values, the source holds several entries; their conditions need not be identical. Identical values can stand only once. Like-named read-outs stand apart in the source and are kept apart here. Where a SMILES comes first, the peptide text is derived from it. [ ]: non-standard residue; d: D form. The star is where a group is joined. Oleoyl = CCCCCCCC/C=C\CCCCCCCC(=O)*; Palmitoyl = CCCCCCCCCCCCCCCC(=O)*; Pentanoyl(4-Me) = CC(C)CCC(=O)*; Lauroyl = CCCCCCCCCCCC(=O)*; Octanoyl = CCCCCCCC(=O)*; X1 = O=C(CCCCCCCCCCCO)*; Hexanoyl = CCCCCC(=O)*; Pentanoyl = CCCCC(=O)*; Butyryl = CCCC(=O)*
Experiments:
[1] = tested on: Pseudomonas syringae pv. syringae EPS94; type: cell-based; conditions: 48 h
Description: (§1) The following plant pathogenic bacterial strains were used: Erwinia amylovora PMV6076 (Institut National de la Recherche Agronomique, Angers, France), Pseudomonas syringae pv. syringae EPS94 (Institut de Tecnologia Agroalimentària, Universitat de Girona, Spain) and Xanthomonas axonopodis pv. vesicatoria 2133–2 (Instituto Valenciano de Investigaciones Agrarias, Valencia, Spain). All bacteria were stored in Luria Bertani (LB) broth supplemented with glycerol (20%) and maintained at -80°C. Bacteria were scrapped from LB agar after growing for 24–48 h at 25°C. The cell material was suspended in sterile water to obtain a suspension of 10^8 CFU mL^-1.
(§2) Lyophilized peptides were solubilized in sterile Milli-Q water to a final concentration of 1 mM and filter sterilized through a 0.22-μm pore filter. For minimum inhibitory concentration (MIC) assessment, dilutions of the compounds were made to obtain a stock concentration of […]. For antibacterial activity twenty microlitres of each dilution were mixed in a microtiter plate well with 20 μL of the corresponding suspension of the bacterial indicator, 160 μL of Trypticase Soy Broth (TSB) (BioMèrieux, France) to a total volume of 200 μL. For antifungal activity 20 μL of each stock solution were mixed in a microtiter plate well with 80 μL of the corresponding suspension of the fungal pathogen and 100 μL of double concentrated PDB to a total volume of 200 μL containing 0.003% w/v of choramphenicol.
(§3) Three replicates for each strain, compound and concentration were used. Microbial growth was determined by optical density measurement at 600 nm (Bioscreen C, Labsystem, Helsinki, Finland). For antibacterial activity microplates were incubated at 25°C with 20 sec shaking before hourly absorbance measurement for 48 h. For antifungal activity microplates were incubated at 20°C with 1 min shaking before absorbance measurement that were done every two hours during seven days. The experiment was repeated twice. The MIC was taken as the lowest compound concentration with no growth at the end of the experiment.

[2] = tested on: Xanthomonas axonopodis pv. vesicatoria 2133–2; type: cell-based; conditions: TSB, 25°C, 48 h, OD 600 nm; tested at 3.1, 6.2, 12.5, 25, 50 μM; three replicates, experiment repeated twice; MIC = lowest concentration with no growth
Description: as §1, §2, §3

[3] = tested on: Erwinia amylovora PMV6076; experiment: MIC, in vitro growth inhibition; type: cell-based; conditions: TSB, 25°C, 48 h, OD 600 nm; tested at 3.1, 6.2, 12.5, 25, 50 μM; three replicates, experiment repeated twice; MIC = lowest concentration with no growth
Description: as §1, §2, §3

[4] = tested on: Fusarium oxysporum f. sp. lycopersici FOL 3 race 2; experiment: MIC, antifungal growth inhibition; type: cell-based
Description: Fusarium oxysporum f. sp. lycopersici FOL 3 race 2 (ATCC 201829, American Type Culture Collection) was used as fungal pathogen. The strain was cultured on potato dextrose agar (PDA) plates (Difco) and microconidia were obtained after growth at 25°C. The concentration of conidia was determined using a hemacytometer and adjusted to 10^4 conidia mL^-1.
as §2, §3

[5] = tested on: erythrocyte suspensions of horse blood; conditions: horse erythrocytes 5% vol/vol, TRIS buffer pH 7.2, 1 h at 37°C, absorbance 540 nm, relative to melittin 100 μM, ± confidence interval (α = 0.05); for Hemolysis (%) 150 µM: 150 µM peptide; for Hemolysis (%) 250 µM: 250 µM peptide;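 on all read-outs here: Read-out is hemoglobin release into the supernatant, with a buffer-only blank subtracted as the 0% baseline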
[6] = PDB with 0.003% chloramphenicol, 20°C, seven days, OD 600 nm, tested at 3.1, 6.2, 12.5, 25, 50 μM, three replicates, repeated twice

Compound | MIC Pss [1] [µM] | MIC Xav [2] [µM] | MIC Ea [3] [µM] | MIC Fo [4, 6] | Hemolysis (%) 150 µM [5] [%] | Hemolysis (%) 250 µM [5] [%] | MIC Fo [4] [µM] | MIC Pss ([1]; TSB, 25°C, OD 600 nm, tested at 3.1, 6.2, 12.5, 25, 50 μM, three replicates, experiment repeated twice, MIC = lowest concentration with no growth) [µM]
CCCCCCCC(=O)NCCCC[C@@H]1NC(=O)[C@H](CCCCN)NC(=O)[C@H](CC(C)C)NC(=O)[C@H](CCCCN)NC(=O)[C@H](CCCCN)NC(=O)[C@H](CCC(N)=O)NC(=O)[C@H](CC(C)C)NC(=O)[C@H](CCCCN)NC(=O)[C@H](CCCCN)NC(=O)[C@H](Cc2ccccc2)NC1=O [BPC498, c(KKLKK(CO-C7H15)FKKLQ)] (cyclo(FKKLQKKLKK(Octanoyl))) | 12.5 to 25 | 6.2 to 12.5 | 25 to 50 | 3.1 to 6.2 µM | 78 ± 4 | 100 ± 12 | – | –
CCCCCCCCCCCCCCCC(=O)NCCCC[C@@H]1NC(=O)[C@H](CCCCN)NC(=O)[C@H](CC(C)C)NC(=O)[C@H](CCCCN)NC(=O)[C@H](CCCCN)NC(=O)[C@H](CCC(N)=O)NC(=O)[C@H](CC(C)C)NC(=O)[C@H](CCCCN)NC(=O)[C@H](CCCCN)NC(=O)[C@H](Cc2ccccc2)NC1=O [BPC502, c(KKLKK(CO-C15H31)FKKLQ)] (cyclo(FKKLQKKLKK(Palmitoyl))) | >50 | >50 | >50 | >50 µM | 78 ± 1 | 99 ± 2 | – | –
CC(C)C[C@@H]1NC(=O)[C@H](CCCCN)NC(=O)[C@H](CCCCN)NC(=O)[C@H](CCC(N)=O)NC(=O)[C@H](CC(C)C)NC(=O)[C@H](CCCCN)NC(=O)[C@H](CCCCN)NC(=O)[C@H](Cc2ccccc2)NC(=O)[C@H](CCCCNC(=O)CCCCCCCCCCCO)NC(=O)[C@H](CCCCN)NC1=O [BPC524, c(KKLKK(CO-C11H22OH)FKKLQ)] (cyclo(FKKLQKKLKK(X1))) | 12.5 to 25 | 6.2 to 12.5 | 25 to 50 | 12.5 to 25 µM | 100 ± 8 | 100 ± 6 | – | –
CCCCC(=O)NCCCC[C@@H]1NC(=O)[C@H](CCCCN)NC(=O)[C@H](CC(C)C)NC(=O)[C@H](CCCCN)NC(=O)[C@H](CCCCN)NC(=O)[C@H](CCC(N)=O)NC(=O)[C@H](CC(C)C)NC(=O)[C@H](CCCCN)NC(=O)[C@H](CCCCN)NC(=O)[C@H](Cc2ccccc2)NC1=O [BPC526, c(KKLKK(CO-C4H9)FKKLQ)] (cyclo(FKKLQKKLKK(Pentanoyl))) | 12.5 to 25 | <3.1 | 12.5 to 25 | 6.2 to 12.5 µM | 62 ± 2 | 78 ± 3 | – | –
CCCCCCCCCCCC(=O)NCCCC[C@@H]1NC(=O)[C@H](CCCCN)NC(=O)[C@H](CC(C)C)NC(=O)[C@H](CCCCN)NC(=O)[C@H](CCCCN)NC(=O)[C@H](CCC(N)=O)NC(=O)[C@H](CC(C)C)NC(=O)[C@H](CCCCN)NC(=O)[C@H](CCCCN)NC(=O)[C@H](Cc2ccccc2)NC1=O [BPC530, c(KKLKK(CO-C11H23)FKKLQ)] (cyclo(FKKLQKKLKK(Lauroyl))) | 12.5 to 25 | 6.2 to 12.5 | 12.5 to 25 | 6.2 to 12.5 µM | 89 ± 7 | 91 ± 9 | – | –
CCCCCC(=O)NCCCC[C@@H]1NC(=O)[C@H](CCCCN)NC(=O)[C@H](Cc2ccccc2)NC(=O)[C@H](CCCCN)NC(=O)[C@H](CCCCN)NC(=O)[C@H](CC(C)C)NC(=O)[C@H](CCCCN)NC(=O)[C@H](CCCCN)NC(=O)[C@H](CCC(N)=O)NC(=O)[C@H](CC(C)C)NC1=O [BPC582] (cyclo(FKK(Hexanoyl)LQKKLKK)) | 6.2 to 12.5 | 6.2 to 12.5 | 12.5 to 25 | 12.5 to 25 µM | 92 ± 3 | 96 ± 10 | – | –
CCCCCC(=O)NCCCC[C@@H]1NC(=O)[C@H](Cc2ccccc2)NC(=O)[C@H](CCCCN)NC(=O)[C@H](CCCCN)NC(=O)[C@H](CC(C)C)NC(=O)[C@H](CCCCN)NC(=O)[C@H](CCCCN)NC(=O)[C@H](CCC(N)=O)NC(=O)[C@H](CC(C)C)NC(=O)[C@H](CCCCN)NC1=O [BPC584, c(KKLKKFK(CO-nC5H11)KLQ)] (cyclo(FK(Hexanoyl)KLQKKLKK)) | 12.5 to 25 | 6.2 to 12.5 | 25 to 50 | 25 to 50 µM | 72 ± 5 | 97 ± 12 | – | –
CCCCCC(=O)NCCCC[C@@H]1NC(=O)[C@H](CC(C)C)NC(=O)[C@H](CCCCN)NC(=O)[C@H](CCCCN)NC(=O)[C@H](CCC(N)=O)NC(=O)[C@H](CC(C)C)NC(=O)[C@H](CCCCN)NC(=O)[C@H](CCCCN)NC(=O)[C@H](Cc2ccccc2)NC(=O)[C@H](CCCCN)NC1=O [BPC586, c(KKLK(CO-nC5H11)KFKKLQ)] (cyclo(FKKLQKKLK(Hexanoyl)K)) | 6.2 to 12.5 | 6.2 to 12.5 | 12.5 to 25 | 12.5 to 25 µM | 92 ± 9 | 95 ± 20 | – | –
CCCCCCCC/C=C\CCCCCCCC(=O)NCCCC[C@@H]1NC(=O)[C@H](CCCCN)NC(=O)[C@H](CC(C)C)NC(=O)[C@H](CCCCN)NC(=O)[C@H](CCCCN)NC(=O)[C@H](CCC(N)=O)NC(=O)[C@H](CC(C)C)NC(=O)[C@H](CCCCN)NC(=O)[C@H](CCCCN)NC(=O)[C@H](Cc2ccccc2)NC1=O [BPC622, c(KKLKK(CO-C17H33)FKKLQ)] (cyclo(FKKLQKKLKK(Oleoyl))) | 25 to 50 | 3.1 to 6.2 | >50 | >50 µM | 91 ± 2 | 97 ± 3 | – | –
CCCCCC(=O)NCCCC[C@@H]1NC(=O)[C@H](CCCCN)NC(=O)[C@H](CC(C)C)NC(=O)[C@H](CCCCN)NC(=O)[C@H](CCCCN)NC(=O)[C@H](CCC(N)=O)NC(=O)[C@H](CC(C)C)NC(=O)[C@H](CCCCN)NC(=O)[C@H](CCCCN)NC(=O)[C@@H](Cc2ccccc2)NC1=O [BPC624, c(KKLKK(CO-nC5H11)fKKLQ)] (cyclo(KKLKK(Hexanoyl)[dF]KKLQ)) | 12.5 to 25 | 6.2 to 12.5 | 25 to 50 | 6.2 to 12.5 µM | 53 ± 5 | 64 ± 9 | – | –
CC(C)CCC(=O)NCCCC[C@@H]1NC(=O)[C@H](CCCCN)NC(=O)[C@H](CC(C)C)NC(=O)[C@H](CCCCN)NC(=O)[C@H](CCCCN)NC(=O)[C@H](CCC(N)=O)NC(=O)[C@H](CC(C)C)NC(=O)[C@H](CCCCN)NC(=O)[C@H](CCCCN)NC(=O)[C@@H](Cc2ccccc2)NC1=O [BPC626, c(KKLKK(CO-isoC5H11)fKKLQ)] (cyclo(KKLKK(Pentanoyl(4-Me))[dF]KKLQ)) | 12.5 to 25 | 6.2 to 12.5 | 25 to 50 | 6.2 to 12.5 µM | 51 ± 7 | 54 ± 4 | – | –
CCCC(=O)NCCCC[C@H]1NC(=O)[C@H](CCCCN)NC(=O)[C@H](CC(C)C)NC(=O)[C@H](CCCCN)NC(=O)[C@H](CCCCN)NC(=O)[C@H](CCC(N)=O)NC(=O)[C@H](CC(C)C)NC(=O)[C@H](CCCCN)NC(=O)[C@H](CCCCN)NC(=O)[C@H](Cc2ccccc2)NC1=O [BPC702, c(KKLKk(CO-C3H7)FKKLQ)] (cyclo(FKKLQKKLK[dK](Butyryl))) | – | – | 25 to 50 | < 12.5 µM and 3.1 to 6.2 µM | 1 ± 0.1 | – | 3.1 to 6.2 | –
c(KKLKK(CO-C6H13)FKKLQ) [BPC592] | – | 6.2 to 12.5 | 25 to 50 | 12.5 to 25 µM | – | – | – | 12.5 to 25

Reference: paper PMC4805166, “Synthetic Cyclolipopeptides Selective against Microbial, Plant and Animal Cell Targets by Incorporation of D-Amino Acids or Histidine” (PLoS ONE, 2016)
